Experiments:
[1] = system: HeLa cells; assay: Transfection efficiency with Luciferase (SecNLuc) mRNA, Nano-Glo assay (Method A); format: cell-based; details: Luc mRNA, 24 h, luminescence; for Transfection 10 ng mRNA: 10 ng mRNA/well; for Transfection 50 ng mRNA: 50 ng mRNA/well; for Transfection 100 ng mRNA: 100 ng mRNA/well
Procedure, shortened: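 Luminescence from secreted NanoLuc, read with Nano-Glo reagent, gave transfection efficiency 24 h after HeLa cells were dosed. Method A lipid nanoparticles delivered SecNLuc mRNA at 10, 50 or 100 ng per well in triplicate.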

[2] = system: HepG2 cell line; assay: In vitro toxicity study on HepG2 cell line (resazurin, viability and IC50); format: cell-based, human; details: for IC50: Homo sapiens, lipid toxicity, HepG2, 48 h post-treatment, 6.25-800 μM, read-out: IC50 value, μM (on HepG2 cell)
Procedure, shortened: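 Resazurin read-out (ex 530/em 580 nm, 5 h at 37 °C) measured lipid toxicity 48 h after dosing HepG2 cells (1000/well) at 6.25–800 μM. Viability was normalised to ethanol vehicle, and IC50 was derived from concentration-response curves.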

[3] = HepG2 cells, 6.25 μM lipid, 48 h post-treatment, resazurin, relative to ethanol vehicle controls
[4] = HepG2 cells, 12.5 μM lipid, 48 h post-treatment, resazurin, relative to ethanol vehicle controls
[5] = HepG2 cells, 25 μM lipid, 48 h post-treatment, resazurin, relative to ethanol vehicle controls
[6] = HepG2 cells, 50 μM lipid, 48 h post-treatment, resazurin, relative to ethanol vehicle controls
[7] = HepG2 cells, 100 μM lipid, 48 h post-treatment, resazurin, relative to ethanol vehicle controls
[8] = HepG2 cells, 200 μM lipid, 48 h post-treatment, resazurin, relative to ethanol vehicle controls
[9] = HepG2 cells, 400 μM lipid, 48 h post-treatment, resazurin, relative to ethanol vehicle controls
[10] = HepG2 cells, 800 μM lipid, 48 h post-treatment, resazurin, relative to ethanol vehicle controls

Structure (SMILES) | Transfection 10 ng mRNA [1] | Transfection 50 ng mRNA [1] | Transfection 100 ng mRNA [1] | Viability (%) at different lipid concentrations, mean [2, 3] | Viability (%) at different lipid concentrations, mean [2, 4] | Viability (%) at different lipid concentrations, mean [2, 5] | Viability (%) at different lipid concentrations, mean [2, 6] | Viability (%) at different lipid concentrations, mean [2, 7] | Viability (%) at different lipid concentrations, mean [2, 8] | Viability (%) at different lipid concentrations, mean [2, 9] | Viability (%) at different lipid concentrations, mean [2, 10] | IC50 ([2]; resazurin) | Viability (%) at different lipid concentrations, mean ([2]; human, 48 h, 6.25 μM) | Viability (%) at different lipid concentrations, mean ([2]; human, 48 h, 50 μM)
CCCCCCCC/C=C\CCCCCCCCOC(=O)C(C)(C)CC(OCCCCCCCC/C=C\CCCCCCCC)O[Si](C)(C)OCCCCCCN(CCCO)CCCO (stereo not drawn) [Example 88, (Z)-octadec-9-en-1-yl 1-hydroxy-4-(3-hydroxypropyl)-12,12,16,16-tetramethyl-14-(((Z)-octadec-9-en-1-yl)oxy)-11,13-dioxa-4-aza-12-silaheptadecan-17-oate] | 6.30E+03 | 9.95E+04 | 5.10E+05 | 109.1% | 112.0% | 109.5% | 99.6% | 77.4% | 57.3% | 36.6% | 21.0% | 272 µM |  | 
CCCCCCCC/C=C\CCCCCCCCOC(=O)C(C)(C)CC(OCCCCCCCC/C=C\CCCCCCCC)O[Si](C)(C)OCCCCCCN1CCCCC1CO (stereo not drawn) [Example 89, (Z)-octadec-9-en-1-yl 4-((((6-(2-(hydroxymethyl)piperidin-1-yl)hexyl)oxy)dimethylsilyl)oxy)-2,2-dimethyl-4-(((Z)-octadec-9-en-1-yl)oxy)butanoate] | 1.10E+06 | 7.47E+06 | 1.54E+07 | 101.4% | 97.9% | 97.9% | 102.8% | 108.3% | 106.6% | 99.5% | 91.6% | > 800 µM |  | 
CCCCCCCC/C=C\CCCCCCCCOC(=O)C(C)(C)CC(OCCCCCCCC/C=C\CCCCCCCC)O[Si](C)(C)OCCCCCCN1CCCC1CO (stereo not drawn) [Example 90, (Z)-octadec-9-en-1-yl 4-((((6-(2-(hydroxymethyl)pyrrolidin-1-yl)hexyl)oxy)dimethylsilyl)oxy)-2,2-dimethyl-4-(((Z)-octadec-9-en-1-yl)oxy)butanoate] | 2.84E+04 | 1.06E+06 | 4.86E+06 | 101.5% | 96.4% | 96.6% | 100.5% | 105.8% | 104.9% | 93.1% | 84.0% | > 800 µM |  | 
CCCCCCCC/C=C\CCCCCCCCOC(=O)C(C)(C)CC(OCCCCCCCC/C=C\CCCCCCCC)O[Si](C)(C)OCCCCCCN(C)CCCCO (stereo not drawn) [Example 91, (Z)-octadec-9-en-1-yl 18-hydroxy-2,2,6,6,14-pentamethyl-4-(((Z)-octadec-9-en-1-yl)oxy)-5,7-dioxa-14-aza-6-silaoctadecanoate] | 7.02E+03 | 1.13E+05 | 7.45E+05 | 100.2% | 98.8% | 108.4% | 112.4% | 103.1% | 88.0% | 61.2% | 44.1% | 625 µM |  | 
CCCCCCCC/C=C\CCCCCCCCOC(=O)C(C)(C)CC(OCCCCCCCC/C=C\CCCCCCCC)O[Si](C)(C)OCCCCCCN(C)CC(O)CO (stereo not drawn) [Example 92, (Z)-octadec-9-en-1-yl 1,2-dihydroxy-4,12,12,16,16-pentamethyl-14-(((Z)-octadec-9-en-1-yl)oxy)-11,13-dioxa-4-aza-12-silaheptadecan-17-oate] | 3.35E+03 | 3.94E+04 | 1.65E+05 | 105.5% | 104.3% | 110.6% | 109.4% | 98.9% | 80.7% | 63.8% | 49.2% | 691 µM |  | 
CCCCCCCC/C=C\CCCCCCCCOC(=O)C(C)(C)CC(OCCCCCCCC/C=C\CCCCCCCC)O[Si](C)(C)OCCCCCCN(C)CCO (stereo not drawn) [Example 93, (Z)-octadec-9-en-1-yl 1-hydroxy-3,11,11,15,15-pentamethyl-13-(((Z)-octadec-9-en-1-yl)oxy)-10,12-dioxa-3-aza-11-silahexadecan-16-oate] | 2.73E+03 | 2.75E+04 | 1.19E+05 | 102.3% | 99.0% | 105.2% | 112.1% | 111.6% | 99.7% | 83.4% | 72.2% | > 800 µM |  | 
CCCCCCCC/C=C\CCCCCCCCOC(=O)C(C)(C)CCC(OCCCCCCCC/C=C\CCCCCCCC)O[Si](C)(C)OCCCCCCN(CCO)CCO (stereo not drawn) [Example 94, (Z)-octadec-9-en-1-yl 1-hydroxy-3-(2-hydroxyethyl)-11,11,16,16-tetramethyl-13-(((Z)-octadec-9-en-1-yl)oxy)-10,12-dioxa-3-aza-11-silaheptadecan-17-oate] | 7.50E+02 | 8.22E+03 | 3.14E+04 |  | 96.6% | 97.9% |  | 106.5% | 107.9% | 104.0% | 103.1% | > 800 µM | 101.5% | 101.3%
CCCCCCCC/C=C\CCCCCCCCOC(=O)C(C)(C)CCC(OCCCCCCCC/C=C\CCCCCCCC)O[Si](C)(C)OCCCCCCN1CCOCC1 (stereo not drawn) [Example 95, (Z)-octadec-9-en-1-yl 5-((dimethyl((6-morpholinohexyl)oxy)silyl)oxy)-2,2-dimethyl-5-(((Z)-octadec-9-en-1-yl)oxy)pentanoate] | 1.22E+02 | 5.37E+02 | 9.82E+02 | 102.8% | 97.8% | 98.4% | 99.7% | 98.8% | 100.3% | 103.6% | 104.6% | > 800 µM |  | 
